Assay results published in patent US4514414A, “N-Substituted pyrrolidineacetic acids and their esters” (Smithkline Beckman Corporation, priority 1982, dated 1985).

Test system: GABA uptake by a crude synaptosomal fraction (P2) of the rat brain
Assay: Inhibition of 3H-GABA uptake by crude synaptosomal fraction (P2) of rat brain
Type: biochemical
Conditions: rat brain P2 synaptosomal suspension, 37° C., 15 minutes preincubation, 1 μM 3H-GABA, incubation time 3 minutes; read-out: IC50 (concentration producing a 50% inhibition of GABA accumulation)
Protocol: The inhibition of GABA uptake produced by the compounds of this invention is measured by the ability of the active medicament to inhibit ^3 H-GABA uptake by a crude synaptosomal fraction (P2) of the rat brain. In this test system, aliquots of the P2 suspension are preincubated in a buffered physiological medium at 37° C. in the presence of test compound for 15 minutes. Uptake is initiated by the addition of ^3 H-GABA to a final concentration of 1 μM and terminated by filtration through a 0.45 um Millipore filter. Incubation time is 3 minutes. A compound producing a 50% or greater inhibition of GABA uptake at concentrations of 10 μM is considered to show biosignificant activity. The IC50 value is the concentration of a compound producing a 50% inhibition of GABA accumulation.

Compound: O=C(O)CC1CCN(CCC=C(c2ccccc2)c2ccccc2)C1 (stereo not shown) [1-(4,4-diphenyl-3-butenyl)-3-pyrrolidineacetic acid]
- IC50: 121 nM
